Results from US20050215433A1, “Aromatic fluid as agricultural solvent” (priority 2004, published 2005).

Columns and labels:
Type in all cases: physicochemical
[1] = Kauri Butanol Value, variation of ASTM D-1133-02; details: 20 grams kauri-butanol solution titrated with the solvent
Protocol: Kauri Butanol Value was determined by a variation of ASTM D-1133-02. In a […] Erlenmeyer flask, 20 grams (±0.1 grams) of kauri-butanol solution was added. The flask was placed in a water bath at 20° C. (±1° C.). A 50-milliliter burette was filled with the solvent being tested. The standardized kauri-butanol solution was titrated with the solvent being tested until the end point was reached. A photocopy of the residence listings from a telephone book was used as the 10 point print sample placed directly beneath the water bath. The tester looked through the liquid at the print to observe the end point. […] The volume in milliliters of solvent added to the flask to produce turbidity was recorded. The kauri-butanol values were calculated using the following formula: Kauri-Butanol value=[65(C−B)/(A−B)]+40 (1) where A is the milliliters of toluene required to titrate 20 grams of kauri-butanol solution (the A factor should be on the certificate of analysis that accompanies the standardized kauri-butanol solution); • B is the milliliters of n-heptane-toluene blend required to titrate 20 grams of kauri butanol solution (the B factor should be on the certificate of analysis that accompanies the standardized kauri-butanol solution); and • C is the milliliters of solvent being tested that are required to titrate 20 grams of kauri-butanol solution. […]

[2] = Solubility of pesticide in the solvent (highest concentration without crystallization); details: no crystals after seeding; for Solubility in Weight %: Bromoxynil Octanoate: pesticide Bromoxynil Octanoate dissolved in the solvent; for Solubility in Weight %: Chlorpyrifos: pesticide Chlorpyrifos dissolved in the solvent; for Solubility in Weight %: Pendimethalin: pesticide Pendimethalin dissolved in the solvent; for Solubility in Weight %: Permethrin: pesticide Permethrin dissolved in the solvent; for Solubility in Weight %: Trifluralin: pesticide Trifluralin dissolved in the solvent
Protocol: Solubility was determined by adding a predetermined weight of pesticide to a vial and then adding the solvent to within 10 grams to make the appropriate concentrations. Several different concentrations were made. […] The vials were capped and inverted several times to completely dissolve the pesticide. If the pesticide was not completely dissolved, the vials were placed in a beaker filled with warm water until the pesticide dissolved. The water was not heated closer than 30° C. of the flash point of the solvent being tested. The vial was removed from the heated beaker and was left to stand for 3 hours at room temperature. The vial was then placed into a chiller, an ethylene glycol bath, if a lower temperature was desired. […] If crystals were present, the solutions in the vials were diluted, the vials were inverted several times, the vials were either heated or cooled, and the vials were checked for crystals. The vials were allowed to stand for 24 hours and were then rechecked for crystals. If crystals were still absent after 24 hours, one crystal of pesticide was added to the vial (seeding) and the vial was inverted several times to assure the crystal was dissolved. The vial was left to stand for 48 hours and rechecked for crystals. If crystals were present, the solution was diluted further and the previous steps were repeated until no crystals appeared after seeding. […] The test was started again at the beginning with higher concentrations of the pesticide in the solvent.

[3] = Mixed Aniline Point, variation of ASTM D-611-82; details: 10 milliliters aniline + 5 milliliters sample + 5 milliliters n-heptane
Protocol: For the Mixed Aniline Point, 10 milliliters of aniline was added to a test tube. The test tube was fitted with a suitable stirrer and thermometer. The thermometer was centered in the test tube and some padding was kept at the base of the stand to avoid breakage of the test tube if it slipped. […] Added to the test tube containing aniline was 5 milliliters of sample and 5 milliliters of n-heptane. The test tube was placed into a cooling bath of isopropyl alcohol and dry ice. The mixture was continuously stirred rapidly using 2 inch strokes, avoiding introduction of air bubbles. The mixture was allowed to cool below the first appearance of turbidity and the Mixed Aniline Point was recorded.

Compound	Kauri-Butanol Value [1]	Solubility in Weight %: Bromoxynil Octanoate [2] [Weight %]	Solubility in Weight %: Chlorpyrifos [2] [Weight %]	Solubility in Weight %: Pendimethalin [2] [Weight %]	Solubility in Weight %: Permethrin [2] [Weight %]	Solubility in Weight %: Trifluralin [2] [Weight %]	Mixed Aniline Point [3] [°C]
Cc1cc(C)cc(C(C)(C)C)c1 [Example 5, 5-ter-Butyl-m-Xylene]	66	61	65	35	65	50	28
CN1CCCC1=O [Example 10, 1-Methyl-2-Pyrrilidinone]	–	75	80	55	75	70	–
CCCCCCCCCCCCc1ccccc1 [Example 17, Dodecyl Benzene]	36	40	50	20	45	25	43
Dipentylindan [Example 12]	–	25	40	<15	50	<15	–
Monopentylindan [Example 11]	–	50	60	25	65	35	–
